Data published in ChEMBL document CHEMBL6120963, “Discovery of Novel PROTAC SIRT6 Degraders with Potent Efficacy against Hepatocellular Carcinoma” (J Med Chem, 2024).
Calls of active or inactive are those of the source. No cut-off for these calls is given here.

Key:
[1] = biological target: T1, Protein cereblon/NAD-dependent protein deacylase sirtuin-6 (Homo sapiens, UniProt Q8N6T7+Q96SW2); assay: PROTAC activity at CRBN/SIRT6 in human SK-HEP1 cells assessed as induction of SIRT6 degradation at 200 nM incubated for 36 hrs by In-Cell ELISA relative to control; assay type: cell-based
Target sequence in this assay (Q8N6T7 2-355 limits assumed): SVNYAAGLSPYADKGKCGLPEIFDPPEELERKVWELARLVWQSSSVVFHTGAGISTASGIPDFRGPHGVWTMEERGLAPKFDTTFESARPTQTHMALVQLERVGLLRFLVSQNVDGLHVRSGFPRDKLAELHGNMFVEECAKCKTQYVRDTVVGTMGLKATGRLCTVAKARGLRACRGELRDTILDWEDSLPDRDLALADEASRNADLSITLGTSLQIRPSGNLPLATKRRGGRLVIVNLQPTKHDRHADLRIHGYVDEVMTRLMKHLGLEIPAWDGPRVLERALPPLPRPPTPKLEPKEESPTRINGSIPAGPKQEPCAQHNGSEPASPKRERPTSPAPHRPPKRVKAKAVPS
Target sequence in this assay (Q96SW2 whole entry partner): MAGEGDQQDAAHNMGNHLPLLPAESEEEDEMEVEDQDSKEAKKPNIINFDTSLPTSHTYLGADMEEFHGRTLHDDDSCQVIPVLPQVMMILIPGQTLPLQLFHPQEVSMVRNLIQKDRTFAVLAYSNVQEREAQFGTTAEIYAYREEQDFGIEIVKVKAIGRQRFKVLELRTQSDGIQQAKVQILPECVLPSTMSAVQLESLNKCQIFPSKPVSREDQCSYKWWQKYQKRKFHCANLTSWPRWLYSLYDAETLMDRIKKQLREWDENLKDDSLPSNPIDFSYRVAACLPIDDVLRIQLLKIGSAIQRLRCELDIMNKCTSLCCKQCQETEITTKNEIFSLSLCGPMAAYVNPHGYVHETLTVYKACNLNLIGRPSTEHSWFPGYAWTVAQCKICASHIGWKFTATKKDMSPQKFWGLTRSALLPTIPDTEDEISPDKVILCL

[2] = biological target: T1, Protein cereblon/NAD-dependent protein deacylase sirtuin-6; assay: PROTAC activity at CRBN/SIRT6 in human SK-HEP1 cells assessed as induction of SIRT6 degradation at 2 uM incubated for 36 hrs by In-Cell ELISA relative to control; assay type: cell-based
Target sequence in this assay (Q8N6T7 2-355 limits assumed): as the sequence (Q8N6T7 2-355 limits assumed) above
Target sequence in this assay (Q96SW2 whole entry partner): as the sequence (Q96SW2 whole entry partner) above

[3] = biological target: T1, Protein cereblon/NAD-dependent protein deacylase sirtuin-6; assay: PROTAC activity at CRBN/SIRT6 in human SK-HEP1 cells assessed as induction of SIRT6 degradation at 2 to 3 uM incubated for 36 hrs by Western blot analysis; assay type: cell-based; settings: dose 2-3 µM
Target sequence in this assay (Q8N6T7 2-355 limits assumed): as the sequence (Q8N6T7 2-355 limits assumed) above
Target sequence in this assay (Q96SW2 whole entry partner): as the sequence (Q96SW2 whole entry partner) above

[4] = biological target: T1, Protein cereblon/NAD-dependent protein deacylase sirtuin-6; assay: PROTAC activity at CRBN/SIRT6 in human SK-HEP1 cells assessed as induction of SIRT6 degradation incubated for 36 hrs by Western blot analysis; assay type: cell-based; settings: for Activity: dose 0.02-5 µM
[5] = biological target: T1, Protein cereblon/NAD-dependent protein deacylase sirtuin-6; assay: PROTAC activity at CRBN/SIRT6 in human SK-HEP1 cells assessed as efficiency of SIRT6 degradation at 2 uM incubated for 36 hrs by Western blot analysis relative to control; assay type: cell-based
Target sequence in this assay (Q8N6T7 2-355 limits assumed): as the sequence (Q8N6T7 2-355 limits assumed) above
Target sequence in this assay (Q96SW2 whole entry partner): as the sequence (Q96SW2 whole entry partner) above

[6] = biological target: T1, Protein cereblon/NAD-dependent protein deacylase sirtuin-6; assay: PROTAC activity at CRBN/SIRT6 in human Huh-7 cells assessed as induction of SIRT6 degradation incubated for 36 hrs by Western blot analysis; assay type: cell-based
[7] = biological target: T1, Protein cereblon/NAD-dependent protein deacylase sirtuin-6; assay: PROTAC activity at CRBN/SIRT6 in human SK-HEP1 cells assessed as hook effect upto 5 uM incubated for 36 hrs by Western blot analysis; assay type: cell-based
Target sequence in this assay (Q8N6T7 2-355 limits assumed): as the sequence (Q8N6T7 2-355 limits assumed) above
Target sequence in this assay (Q96SW2 whole entry partner): as the sequence (Q96SW2 whole entry partner) above

[8] = biological target: T1, Protein cereblon/NAD-dependent protein deacylase sirtuin-6; assay: PROTAC activity at CRBN/SIRT6 in human SK-HEP1 cells assessed as induction of SIRT6 degradation upto 10 uM incubated for 36 hrs by Western blot analysis relative to control; assay type: cell-based
Target sequence in this assay (Q8N6T7 2-355 limits assumed): as the sequence (Q8N6T7 2-355 limits assumed) above
Target sequence in this assay (Q96SW2 whole entry partner): as the sequence (Q96SW2 whole entry partner) above

[9] = biological target: T1, Protein cereblon/NAD-dependent protein deacylase sirtuin-6; assay: PROTAC activity at CRBN/SIRT6 in human Huh-7 cells assessed as induction of SIRT6 degradation upto 10 uM incubated for 36 hrs by Western blot analysis relative to control; assay type: cell-based
SK-HEP1 [10] = assay: Cytotoxicity against human SK-HEP1 cells incubated for 72 hrs by CCK8 assay; assay type: functional, cell-based; settings: SK-HEP1, 72 h
SK-HEP1 [11] = assay: Induction of SIRT6 degradation in human SK-HEP1 cells at 0.5 uM incubated for 36 hrs by In-Cell ELISA relative to control; assay type: cell-based
SK-HEP1 [12] = assay: Induction of SIRT6 degradation in human SK-HEP1 cells at 5 uM incubated for 36 hrs by In-Cell ELISA relative to control; assay type: cell-based
[13] = biological target: NAD-dependent protein deacylase sirtuin-6 (Homo sapiens) (UniProt Q8N6T7); assay: Inhibition of SIRT6 in human SK-HEP1 cells assessed as increase in H3K9Ac level incubated for 36 hrs by Western blot analysis; assay type: cell-based; settings: dose 1.25-20 µM
Chain of NAD-dependent protein deacylase sirtuin-6 (Homo sapiens) (Q8N6T7 whole entry): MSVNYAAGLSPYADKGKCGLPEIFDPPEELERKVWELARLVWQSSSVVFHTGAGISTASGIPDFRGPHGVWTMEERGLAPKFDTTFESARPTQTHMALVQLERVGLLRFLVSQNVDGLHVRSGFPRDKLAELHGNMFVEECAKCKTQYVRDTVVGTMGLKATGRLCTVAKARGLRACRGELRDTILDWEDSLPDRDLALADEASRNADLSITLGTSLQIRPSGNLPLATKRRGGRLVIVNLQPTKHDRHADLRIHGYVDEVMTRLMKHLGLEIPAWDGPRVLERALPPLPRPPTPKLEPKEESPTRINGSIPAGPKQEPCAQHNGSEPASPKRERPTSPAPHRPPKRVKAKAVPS

SK-HEP1 [14] = assay: Antitumor activity against human SK-HEP1 cells xenografted in BALB/c nude mouse at 25 mg/kg treated for 28 to 30 days relative to control; assay type: functional; settings: time 28-30 day
[15] = Toxicity in BALB/c nude mouse xenografted with human SK-HEP1 cells assessed as body weight loss at 25 mg/kg treated for 28 to 30 days; assay type: organism-based; settings: in vivo, time 28-30 day
[16] = Toxicity in BALB/c nude mouse xenografted with human SK-HEP1 cells assessed as pathological damage in heart at 25 mg/kg treated for 28 to 30 days by H and E staining based analysis; assay type: organism-based; settings: in vivo, time 28-30 day
[17] = Toxicity in BALB/c nude mouse xenografted with human SK-HEP1 cells assessed as pathological damage in liver at 25 mg/kg treated for 28 to 30 days by H and E staining based analysis; assay type: organism-based; settings: in vivo, time 28-30 day
[18] = Toxicity in BALB/c nude mouse xenografted with human SK-HEP1 cells assessed as pathological damage in spleen at 25 mg/kg treated for 28 to 30 days by H and E staining based analysis; assay type: organism-based; settings: in vivo, time 28-30 day
[19] = Toxicity in BALB/c nude mouse xenografted with human SK-HEP1 cells assessed as pathological damage in lungs at 25 mg/kg treated for 28 to 30 days by H and E staining based analysis; assay type: organism-based; settings: in vivo, time 28-30 day
[20] = Toxicity in BALB/c nude mouse xenografted with human SK-HEP1 cells assessed as pathological damage in kidney at 25 mg/kg treated for 28 to 30 days by H and E staining based analysis; assay type: organism-based; settings: in vivo, time 28-30 day
[21] = Toxicity in BALB/c nude mouse xenografted with human SK-HEP1 cells assessed as histopathological abnormalities in heart at 25 mg/kg treated for 28 to 30 days by H and E staining based analysis; assay type: organism-based; settings: in vivo, time 28-30 day
[22] = Toxicity in BALB/c nude mouse xenografted with human SK-HEP1 cells assessed as histopathological abnormalities in spleen at 25 mg/kg treated for 28 to 30 days by H and E staining based analysis; assay type: organism-based; settings: in vivo, time 28-30 day
[23] = Toxicity in BALB/c nude mouse xenografted with human SK-HEP1 cells assessed as histopathological abnormalities in lungs at 25 mg/kg treated for 28 to 30 days by H and E staining based analysis; assay type: organism-based; settings: in vivo, time 28-30 day
[24] = biological target: T1, Protein cereblon/NAD-dependent protein deacylase sirtuin-6; assay: PROTAC activity at CRBN/SIRT6 in human SK-HEP1 cells assessed as induction of SIRT6 degradation at 0.02 to 5 uM incubated for 36 hrs by Western blot analysis; assay type: cell-based; settings: dose 0.02-5 µM
[25] = biological target: T1, Protein cereblon/NAD-dependent protein deacylase sirtuin-6; assay: PROTAC activity at CRBN/SIRT6 in human Huh-7 cells assessed as hook effect at 5 uM incubated for 36 hrs by Western blot analysis; assay type: cell-based

| SMILES | Activity [1] [%] | Activity [2] [%] | Activity [3] | DC50 [4] [nM] | Activity [4] | Activity [5] [%] | DC50 [6] [nM] | Activity [7] | Emax [8] [%] | Emax [9] [%] | IC50 (SK-HEP1 [10]) [nM] | other results |
| --- | --- | --- | --- | --- | --- | --- | --- | --- | --- | --- | --- | --- |
| Nc1cc(N2CCN(CC3CCN(c4ccc5c(c4)C(=O)N(C4CCC(=O)NC4=O)C5=O)CC3)CC2)ccc1[N+](=O)[O-] (configuration not stated) | 85.9 | 93.6 | Active | 106 | Dose-dependent-effect | > 95 | 239 | inactive | 94.8 | 90.6 | 1750 | – |
| CN1CCN(c2ccc([N+](=O)[O-])c(N)c2)CC1 | – | – | – | – | – | – | – | – | – | – | 4260 | Activity (SK-HEP1 [11]): 1.8%; Activity (SK-HEP1 [12]): 4.9%; inhibition [13]: Dose-dependent-effect |
| CNC(=O)c1cc(Oc2ccc(NC(=O)Nc3ccc(Cl)c(C(F)(F)F)c3)cc2)ccn1 [SORAFENIB] | – | – | – | – | – | – | – | – | – | – | – | T/C (SK-HEP1 [14]): 35.4%; Activity [15]: Toxic; Activity [16]: Non-toxic; Activity [17]: Non-toxic; Activity [18]: Non-toxic; Activity [19]: Non-toxic; Activity [20]: Non-toxic; Activity [21]: Non-toxic; Activity [22]: Non-toxic; Activity [23]: Non-toxic |
| Nc1cc(N2CCN(CC3CCN(c4ccc5c(c4)C(=O)N(C4CCC(=O)NC4=O)C5=O)C3)CC2)ccc1[N+](=O)[O-] (configuration not stated) | 11.9 | 98.2 | Active | 91.5 | Dose-dependent-effect | > 95 | 360 | inactive | 96.2 | 78.5 | 2190 | – |
| Nc1cc(N2CCN(CCCC3CCN(c4cc5c(cc4F)C(=O)N(C4CCC(=O)NC4=O)C5=O)CC3)CC2)ccc1[N+](=O)[O-] (configuration not stated) | 90.3 | 94.6 | Active | 50.4 | – | – | 263 | – | 97.7 | 81.5 | 1640 | Activity [24]: Active; Activity ([6]; dose 0.008-5 µM): Dose-dependent-effect; But Reduced Degradation Efficiency Observed; Activity [25]: Active |
